Measured values taken from US10238631B2, “Sesquiterpene derivatives and their use in inflammation or cancer treatment” (Academia Sinica, priority 2014, dated 2019).
pIC50: −log10 of the molar value. “And” between values parts separate entries of the source, which are not always exact repeats. Identical values can stand only once. Like-named read-outs stand apart in the source and are kept apart here.

Tests used:
[1] = test system: MDA-MB-231 cells
Method: Briefly, cells (5×10^3 cells/well) were seeded in 96-well plates and treated with BSO at concentrations 100 μM, 45 μM, 18 μM, 7.2 μM, 2.8 μM, 1.15 μM, 461 nM, 184 nM, 74 nM and 29 nM, and sulfasalazine at concentrations 62.75 μM, 25.10 μM, 10 μM, 4 μM, 1.6 μM, 642 nM, 257 nM, 102 nM, 41 nM and 16.4 nM for 30 h, and then 12 μM DET or 3 μM DETD-35 were added in the cultural medium to treat the cells for another 24 h. Cell proliferation was measured by MIT assay.

[2] = test system: A375 human melanoma tumor; test: A375 melanoma xenograft model in NOD/SCID mice; format: in vivo, mouse; conditions: 20 mg/kg i.p.; PLX4032 every day, DET and DETD-35 every two days
Method: (§1) A375 and A375-R melanoma cells (3×10^6) were injected subcutaneously to the flanks of the six weeks old NOD/SCID mice. One week after the inoculation, the mice were randomized into treated groups (n=8 per group) and the treatments were started. Body weight and tumor volume of the mice were recorded every three days using formula a×b^2×0.5, where a and b represented the larger and smaller tumor diameters.
We used A375 human melanoma xenograft model to evaluate the in vivo bioefficacy of DET. DETD-35, PLX4032 and compound drug combination. […] For single compound or drug treatment group, PLX4032 was administered i.p. every day and DET and DETD-35 were administered i.p. every two days. For combination treatment, PLX4032 was administered every two days while DET and DETD-35 were administered every four days. […] Compound-drug combinational treatments were carried out with alternative administration of DET (20 mg/kg) or DETD-35 (20 mg/kg) and PLX4032 (20 mg/kg) by which DET or DETD-35 and PLX4032 treatment frequency were only half of the single compound or drug administration alone.

[3] = test system: DMBA/TPA-induced skin papillomas accelerated by PLX4032
Method: Dorsal skin of six weeks old female FVB/N mice were shaved and treated with topical application of DMBA (25 μg in 100 μL acetone). One week after DMBA treatment, the same skin area were treated topically twice weekly with 12-O-tetradecanoylphorbol-13-acetate (TPA) (4 μg in 100 μL acetone). The area was regularly shaved and tumor formation was assessed twice weekly, and tumors were defined as raised lesions of a minimum diameter of 1 mm.

[4] = test system: A375-R PLX4032-resistant melanoma tumor; test: A375-R melanoma xenograft model in NOD/SCID mice; format: in vivo, mouse; conditions: PLX4032 75 mg/kg
Method: as §1
To study whether or not DETD-35 could overcome acquired resistance to BRAF inhibitor, we generated A375 cell line resistant to PLX4032 (designated A375-R) as described above. We then conducted A375-R orthotopic xenograft study.

[5] = test system: A375-R acquired vemurafenib resistance melanoma cells; test: MTT cell viability assay, PLX4032-resistant A375-R; format: cell-based, human; conditions: 72 h
Method: A375-R, acquired vemurafenib resistance melanoma cell was generated from A375 parental cell and grown in same conditions as A375 cell.
(§2) Normal or cancer cells (2×10^3 to 1×10^4 cells/well) were seeded in 96-well plate for overnight and treated with different compounds for 24 h to 72 h. Cells growth were determined by MTT-based colorimetric assays according to. Viability of the test cells treated with vehicle (0.5% DMSO) only was defined as 100% viable. Survival of cells after treatment with DETDs was calculated using the following formula: viable cell number (%)=OD570 (treated cell culture)/OD570 (vehicle control)×100.
To study the mechanisms underlying how DETD-35 overcomes acquired resistance to BRAF inhibitor, we generated A375 cell line resistant to PLX4032 (designated A375-R). Briefly, A375 melanoma cells were seeded in T75 plate and treated with ascending concentration of PLX4032 (20, 50, 100, 250, 500, 1000, 2000 nM) through approximately 2 months and 20 passages.

[6] = test system: A375 (BRAF mutation); test: MTT cell viability assay, A375 melanoma; format: cell-based, human; conditions: Homo sapiens, MTT
How it was run: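 A375 cells were seeded at 2×10^3 to 1×10^4 per well overnight and then exposed to compounds for 24 h to 72 h. Viability was measured by MTT absorbance at OD570 relative to 0.5% DMSO vehicle (100%), and IC50 was derived from it. Combination with PLX4032 was scored by combination index.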

[7] = test system: HCT-116 colon cancer cell line; test: MTT cell viability assay, HCT-116; format: cell-based; conditions: Homo sapiens, 24 h
Method: as §2
(§3) Based on toxicity results of DET and DETDs on different breast cancer and melanoma cell lines, we selected DETD-6, -32, -35 and -39, under the consideration of structure activity relationship for evaluating their suppression effect against other cancer types of cell line with indicated tumor origin in Table 5. […] The cells were treated with compounds for 24 h and then subjected to MTT assays.

[8] = test system: SK-N-MC neuroepithelioma line; test: MTT cell viability assay, SK-N-MC; format: cell-based; conditions: Homo sapiens, 24 h
Method: as §2, §3

[9] = test system: A498 kidney cancer cell line; test: MTT cell viability assay, A498; format: cell-based; conditions: Homo sapiens, 24 h
Method: as §2, §3

[10] = test system: melanoma cell lines B16-F10, MeWo, A375, A2058, HTB-68; test: MTT cell viability assay, all melanoma cell lines; format: cell-based; conditions: 24 h, read-out: IC50 values over all types of melanoma cell lines
How it was run: (§4)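 Cells (2×10^3 to 1×10^4/well) seeded overnight, then exposed to compounds for 24 h to 72 h. Growth read by MTT colorimetry at OD570. Viability expressed as % of vehicle (0.5% DMSO) control.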

[11] = test system: PC3 (Prostate); test: MTT cell viability assay, PC3; format: cell-based; conditions: 24 h
Method: as §2, §3

[12] = test system: TS/A (ER+, Her2−) murine mammary cancer cells; test: MTT cell viability assay, TS/A cells; format: cell-based; conditions: Mus musculus
How it was run: (§5)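 Cells were seeded at 2×10^3 to 1×10^4 per well overnight, then exposed to compounds for 24 h to 72 h. Viability was read by MTT at OD570 as a percentage of the 0.5% DMSO vehicle control.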

[13] = test system: HTB-68 (NRAS mutation); test: MTT cell viability assay, HTB-68 melanoma; format: cell-based, human; conditions: Homo sapiens, 24 h
How it was run: as §4

[14] = test system: B16-F10 (NRAS mutation); test: MTT cell viability assay, B16-F10 melanoma; format: cell-based; conditions: Mus musculus, B16-F10, 24 h
How it was run: as §4

[15] = test system: NES-SA uterus cancer cell line; test: MTT cell viability assay, NES-SA; format: cell-based; conditions: 24 h
Method: as §2, §3

[16] = test system: PC6 lung cancer cell line; test: MTT cell viability assay, PC6; format: cell-based; conditions: 24 h
Method: as §2, §3

[17] = test system: LPS-induced nitric oxide (NO) production in RAW 264.7 cells; test: Nitric oxide production in LPS-stimulated macrophages (Griess); format: cell-based, mouse
How it was run: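 RAW 264.7 macrophages (2×10^5 cells/well) were pretreated with compound for 1 h and then stimulated with 100 ng/μL LPS for 24 h. NO was measured as nitrite in the medium by the Griess reaction. Viability was checked in parallel by MTT.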

[18] = test system: A2058 (BRAF mutation); test: MTT cell viability assay, A2058 melanoma; format: cell-based, human; conditions: Homo sapiens, A2058, 24 h
How it was run: as §4

[19] = test system: U-87MG brain cancer cell line; test: MTT cell viability assay, U-87MG; format: cell-based; conditions: Homo sapiens, 24 h
Method: as §2, §3

[20] = test system: U937 lymphoma line; test: MTT cell viability assay, U937; format: cell-based; conditions: Homo sapiens, U-937, 24 h
Method: as §2, §3

[21] = test system: KATO III stomach cancer cell line; test: MTT cell viability assay, KATO III; format: cell-based; conditions: Homo sapiens, 24 h
Method: as §2, §3

[22] = test system: MCF-7 (ER+, Her2−) human breast cancer cells; test: MTT cell viability assay, MCF-7 cells; format: cell-based
How it was run: as §5

[23] = test system: MeWo (No NRAS or BRAF mutation); test: MTT cell viability assay, MeWo melanoma; format: cell-based, human; conditions: Homo sapiens, MeWo, 24 h
How it was run: as §4

[24] = test system: MDA-MB-231 (ER−, PR−, Her2−) human breast cancer cells; test: MTT cell viability assay, MDA-MB-231 cells; format: cell-based; conditions: for pIC50: Homo sapiens
How it was run: as §5

[25] = test system: Melanocyte (Normal cells); test: MTT cell viability assay, normal melanocytes; format: cell-based, human; conditions: Homo sapiens, Melanocyte, 24 h
How it was run: as §4

[26] = test system: RAW264.7 (normal macrophage); test: MTT cell viability assay, RAW264.7 macrophages; format: cell-based, mouse; conditions: Mus musculus, RAW264.7, 24 h
How it was run: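 RAW264.7 macrophages (2×10^5 cells/well) pretreated with compounds 1 h, then incubated 24 h with or without 100 ng/μL LPS. Viability by MTT colorimetric assay run in parallel with Griess nitrite measurement.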

[27] = test system: MDA-MB-231 cells; test: Compound-drug combination assay with PTX; format: cell-based, human; conditions: 0-4 μM compound, 0-25 nM PTX
Method: Cell proliferation was measured by MTT assay. Isobologram analysis and Chou-Talalay method was used to determine the effects of compound drug combinations. The interaction of DETDs and PLX4032 or PTX was determined by the combination index (CI), and the CI plot was generated using CompuSyn software. The combined effects of two compounds can be categorized as follows: CI=1 indicates additive interaction, CI<1 indicates synergism, and CI>1 indicates antagonism.
To investigate whether or not DETD-35 and DETD-39 act synergistically with PTX against MDA-MB-231 cell activity, anti-proliferation assay using MTT reagent was performed to obtain the IC60 value of each compound. […] Based on the IC60 values, DETD-35 or DETD-39 ranging from 0 to 4 μM and PIX from 0 to 25 nM were used for compound-drug combination study. Classic isobologram analysis and Chou-Talalay method were conducted to investigate the synergistic effect of compound and drug. Combination index (CI) was calculated with CalcuSyn software (Version 2.0, Biosoft) and expressed as CI vs. Fa (fraction affected). CI<1 indicates synergy; CI=1 indicates additive effect; and CI>1 indicates antagonism.

[28] = test system: M10 normal mammary epithelial cells; test: MTT cell viability assay, M10 normal cells; format: cell-based, human; conditions: 24 h
How it was run: as §5

[29] = DMBA/TPA + PLX4032 20 mg/kg i.p. twice per week

`O=C(O)c1cc(/N=N/c2ccc(S(=O)(=O)Nc3ccccn3)cc2)ccc1O` [sulfasalazine] was tested, and the “cytotoxicity of blocker alone” value [1] was “did not show any cytotoxicity”.

For `CCCS(=O)(=O)Nc1ccc(F)c(C(=O)c2c[nH]c3ncc(-c4ccc(Cl)cc4)cc23)c1F` [PLX4032, Vemurafenib], the “reduction of tumor mass vs tumor control” value [2] was 71.9%, the “start of papillomas formation” value ([3]; DMBA-TPA treated mice + PLX4032, without PLX4032 week 6 to 7) was 3 to 4 weeks and the “papillomas size in average” value [3, 29] was 77.6 mm^3. The total papillomas number [3, 29] was 25.6, the “tumor growth rate and size relative to control group (100%)” value [4] was 98% and the “fold less sensitive, A375-R vs parental A375” value [5] was “more than 100 fold”. The pIC50 ([5]; Homo sapiens, MTT) was 5.08 and the pIC50 ([6]; A-375, 72 h, 72 h, read-out: IC50 on A375 cells) was 7.15.

For `C=C1C(=O)OC2CC3=C[C@@H](C/C(C)=C/C(OC(=O)/C=C/c4cccc(OC)c4)[C@H]12)OC3=O` (stereo partly shown) [DETD-39], the pIC50 [7] was 7.00, the pIC50 [8] was 6.96 and the pIC50 [9] was 6.32. The pIC50 [10] was 5.00 to 5.80 and 5.46 to 5.80, the pIC50 [11] was 5.59 and the pIC50 ([12]; 24 h, read-out: IC50 on cell viability, TS/A (ER+, Her2−)) was 6.10. It also gave a pIC50 ([12]; Table 5, 24 h, read-out: IC50 viability TS/A (mouse) (Breast)) of 6.10, a pIC50 [13] of 5.49 and a pIC50 ([14]; 24 h, read-out: IC50 on cell viability, B16-F10 (NRAS mutation)) of 5.77. It also gave a pIC50 ([14]; Table 5, 24 h, read-out: IC50 viability B16-F10 (mouse) (Skin)) of 5.77, a pIC50 [15] of 6.85 and a pIC50 [16] of 6.96. The “fold decrease in IC50 of NO production vs DET” value [17] was 3 fold, the pIC50 ([17]; Mus musculus, LPS-stimulated RAW264.7, nitrite 24 h after LPS) was 6.00 and the pIC50 [18] was 5.62. For the same compound, the pIC50 [19] was 6.82, the pIC50 [20] was 7.00 and the pIC50 [21] was 6.54. It also gave a pIC50 ([22]; MCF7, 24 h, read-out: IC50 on cell viability, MCF-7 (ER+, Her2−)) of 5.68, a pIC50 ([22]; MCF7, Table 5, 24 h, read-out: IC50 viability MCF-7 (Breast)) of 5.62 and a pIC50 [23] of 5.46. The “IC60 on MDA-MB-231 cells” value ([24]; 24 h) was 3.79 µM, the pIC50 ([24]; MDA-MB-231, 24 h, read-out: IC50 on cell viability, MDA-MB-231 (ER−, PR−, Her2−)) was 5.72 and the pIC50 ([24]; MDA-MB-231, Table 5, 24 h, read-out: IC50 viability MDA-MB-231 (Breast)) was 5.72. The pIC50 [25] was 5.05, the pIC50 [26] was 5.46 and the “combination effect with PTX (isobologram, combination index)” value [27] was “acted synergistically”. The pIC50 ([6]; A-375, 24 h, 24 h, read-out: IC50 on cell viability, A375 (BRAF mutation)) was 5.80, the “IC50 on cell viability, M10 (normal)” value [28] was “some toxicity” and the pIC50 ([28]; Homo sapiens, Epithelial cell) was 5.43.

In the case of `CCCCS(=N)(=O)CCC(N)C(=O)O` (stereo not shown) [BSO, buthionine sulfoximine], the “cytotoxicity of blocker alone” value [1] was “did not show any cytotoxicity”.
